Results as given in US8192962B2, “Processes for detecting toxic substances” (Daikin Industries, Ltd., priority 2001, dated 2012).

Test system: Unknown protein yeast genes
Experiment: DNA chip mRNA expression in yeast, unknown protein yeast genes (Table 1)
Format: cell-based, Saccharomyces cerevisiae S288C
In short: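 In this screen, yeast in logarithmic growth are challenged for two hours with a toxic substance at a non-lethal inhibitory concentration. Their mRNA, converted to Cy3- or Cy5-labeled cDNA, hybridizes at 65° C. to a chip spanning every yeast gene, and expression is expressed as a ratio to untreated cells.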

## Na2As [(1)]
Yeast gene YAL053W, incubated two hours with chemical substance
  The level of expressed mRNA in the presence of chemical substance/The level of expressed mRNA in the absence of chemical substance: 0.9
Yeast gene YBL048W
  The level of expressed mRNA in the presence of chemical substance/The level of expressed mRNA in the absence of chemical substance: 2.0
Yeast gene YBL107C
  The level of expressed mRNA in the presence of chemical substance/The level of expressed mRNA in the absence of chemical substance: 1.4
Yeast gene YDL072C, incubated two hours with chemical substance
  The level of expressed mRNA in the presence of chemical substance/The level of expressed mRNA in the absence of chemical substance: 1.3
Yeast gene YDL204W, incubated two hours with chemical substance
  The level of expressed mRNA in the presence of chemical substance/The level of expressed mRNA in the absence of chemical substance: 1.4
Yeast gene YDL222C, incubated two hours with chemical substance
  The level of expressed mRNA in the presence of chemical substance/The level of expressed mRNA in the absence of chemical substance: 0.9
Yeast gene YDR330W, incubated two hours with chemical substance
  The level of expressed mRNA in the presence of chemical substance/The level of expressed mRNA in the absence of chemical substance: 0.8
Yeast gene YDR411C, incubated two hours with chemical substance
  The level of expressed mRNA in the presence of chemical substance/The level of expressed mRNA in the absence of chemical substance: 0.9
Yeast gene YDR511W, incubated two hours with chemical substance
  The level of expressed mRNA in the presence of chemical substance/The level of expressed mRNA in the absence of chemical substance: 1.3
Yeast gene YDR545W, incubated two hours with chemical substance
  The level of expressed mRNA in the presence of chemical substance/The level of expressed mRNA in the absence of chemical substance: 0.6
Yeast gene YEL001C, incubated two hours with chemical substance
  The level of expressed mRNA in the presence of chemical substance/The level of expressed mRNA in the absence of chemical substance: 1.0
Yeast gene YER004W, incubated two hours with chemical substance
  The level of expressed mRNA in the presence of chemical substance/The level of expressed mRNA in the absence of chemical substance: 1.0
Yeast gene YER035W, incubated two hours with chemical substance
  The level of expressed mRNA in the presence of chemical substance/The level of expressed mRNA in the absence of chemical substance: 1.4
Yeast gene YER079W, incubated two hours with chemical substance
  The level of expressed mRNA in the presence of chemical substance/The level of expressed mRNA in the absence of chemical substance: 1.1
Yeast gene YER106W, incubated two hours with chemical substance
  The level of expressed mRNA in the presence of chemical substance/The level of expressed mRNA in the absence of chemical substance: 1.3
Yeast gene YER158C, incubated two hours with chemical substance
  The level of expressed mRNA in the presence of chemical substance/The level of expressed mRNA in the absence of chemical substance: 1.2
Yeast gene YER163C, incubated two hours with chemical substance
  The level of expressed mRNA in the presence of chemical substance/The level of expressed mRNA in the absence of chemical substance: 1.1
Yeast gene YER175C, incubated two hours with chemical substance
  The level of expressed mRNA in the presence of chemical substance/The level of expressed mRNA in the absence of chemical substance: 0.9
Yeast gene YFL006W, incubated two hours with chemical substance
  The level of expressed mRNA in the presence of chemical substance/The level of expressed mRNA in the absence of chemical substance: 0.8
Yeast gene YFL010C, incubated two hours with chemical substance
  The level of expressed mRNA in the presence of chemical substance/The level of expressed mRNA in the absence of chemical substance: 1.0
Yeast gene YFL024C
  The level of expressed mRNA in the presence of chemical substance/The level of expressed mRNA in the absence of chemical substance: 1.0
Yeast gene YFL032W, incubated two hours with chemical substance
  The level of expressed mRNA in the presence of chemical substance/The level of expressed mRNA in the absence of chemical substance: 0.4
Yeast gene YGL037C, incubated two hours with chemical substance
  The level of expressed mRNA in the presence of chemical substance/The level of expressed mRNA in the absence of chemical substance: 1.5
Yeast gene YGL047W, incubated two hours with chemical substance
  The level of expressed mRNA in the presence of chemical substance/The level of expressed mRNA in the absence of chemical substance: 1.0
Yeast gene YGL053W, incubated two hours with chemical substance
  The level of expressed mRNA in the presence of chemical substance/The level of expressed mRNA in the absence of chemical substance: 1.5
Yeast gene YGL121C
  The level of expressed mRNA in the presence of chemical substance/The level of expressed mRNA in the absence of chemical substance: 2.6
Yeast gene YGL199C, incubated two hours with chemical substance
  The level of expressed mRNA in the presence of chemical substance/The level of expressed mRNA in the absence of chemical substance: 1.1
Yeast gene YGR101W, incubated two hours with chemical substance
  The level of expressed mRNA in the presence of chemical substance/The level of expressed mRNA in the absence of chemical substance: 1.0
Yeast gene YGR110W
  The level of expressed mRNA in the presence of chemical substance/The level of expressed mRNA in the absence of chemical substance: 1.6
Yeast gene YGR130C, incubated two hours with chemical substance
  The level of expressed mRNA in the presence of chemical substance/The level of expressed mRNA in the absence of chemical substance: 0.9
Yeast gene YGR154C, incubated two hours with chemical substance
  The level of expressed mRNA in the presence of chemical substance/The level of expressed mRNA in the absence of chemical substance: 1.8
Yeast gene YGR221C, incubated two hours with chemical substance
  The level of expressed mRNA in the presence of chemical substance/The level of expressed mRNA in the absence of chemical substance: 0.9
Yeast gene YHR138C, incubated two hours with chemical substance
  The level of expressed mRNA in the presence of chemical substance/The level of expressed mRNA in the absence of chemical substance: 2.8
Yeast gene YHR199C, incubated two hours with chemical substance
  The level of expressed mRNA in the presence of chemical substance/The level of expressed mRNA in the absence of chemical substance: 1.9
Yeast gene YIL023C, incubated two hours with chemical substance
  The level of expressed mRNA in the presence of chemical substance/The level of expressed mRNA in the absence of chemical substance: 1.1
Yeast gene YIL041W, incubated two hours with chemical substance
  The level of expressed mRNA in the presence of chemical substance/The level of expressed mRNA in the absence of chemical substance: 1.0
Yeast gene YIL087C, incubated two hours with chemical substance
  The level of expressed mRNA in the presence of chemical substance/The level of expressed mRNA in the absence of chemical substance: 1.3
Yeast gene YJL057C, incubated two hours with chemical substance
  The level of expressed mRNA in the presence of chemical substance/The level of expressed mRNA in the absence of chemical substance: 1.5
Yeast gene YJL066C, incubated two hours with chemical substance
  The level of expressed mRNA in the presence of chemical substance/The level of expressed mRNA in the absence of chemical substance: 0.9
Yeast gene YJL082W, incubated two hours with chemical substance
  The level of expressed mRNA in the presence of chemical substance/The level of expressed mRNA in the absence of chemical substance: 1.4
Yeast gene YJL151C, incubated two hours with chemical substance
  The level of expressed mRNA in the presence of chemical substance/The level of expressed mRNA in the absence of chemical substance: 1.0
Yeast gene YJL152W, incubated two hours with chemical substance
  The level of expressed mRNA in the presence of chemical substance/The level of expressed mRNA in the absence of chemical substance: 0.9
Yeast gene YJL161W, incubated two hours with chemical substance
  The level of expressed mRNA in the presence of chemical substance/The level of expressed mRNA in the absence of chemical substance: 1.7
Yeast gene YJL171C, incubated two hours with chemical substance
  The level of expressed mRNA in the presence of chemical substance/The level of expressed mRNA in the absence of chemical substance: 2.3
Yeast gene YJR008W, incubated two hours with chemical substance
  The level of expressed mRNA in the presence of chemical substance/The level of expressed mRNA in the absence of chemical substance: 1.6
Yeast gene YJR054W, incubated two hours with chemical substance
  The level of expressed mRNA in the presence of chemical substance/The level of expressed mRNA in the absence of chemical substance: 0.8
Yeast gene YKL071W
  The level of expressed mRNA in the presence of chemical substance/The level of expressed mRNA in the absence of chemical substance: 8.3
Yeast gene YKL086W, incubated two hours with chemical substance
  The level of expressed mRNA in the presence of chemical substance/The level of expressed mRNA in the absence of chemical substance: 1.0
Yeast gene YKL151C, incubated two hours with chemical substance
  The level of expressed mRNA in the presence of chemical substance/The level of expressed mRNA in the absence of chemical substance: 1.2
Yeast gene YKL153W, incubated two hours with chemical substance
  The level of expressed mRNA in the presence of chemical substance/The level of expressed mRNA in the absence of chemical substance: 1.1
